How the values were obtained:
[1] = tested on: fibrotic fibroblasts (UIP patients); assay: Profibrotic gene expression (real time PCR) after 24 hrs stimulation of fibrotic fibroblasts; format: cell-based, human; conditions: for IL13Ra2 gene expression (FIG. 7B): fibroblasts, cell type not given; for CTGF gene expression (FIG. 5): fibrotic (UIP) fibroblasts; for TGFb1 gene expression (FIG. 4) / aSMA expression (FIG. 2) / increase in aSMA expression: fibrotic fibroblasts; for increase in aSMA expression: vs unstimulated
From the text: (§1) Cell lines were provided by Dr Cory Hogaboam at the University of Michigan. All of the primary fibroblast lines were isolated as previously described (Hogaboam et al. 1999 J Immunol 163(4):2193-201). Pulmonary fibroblasts were isolated from lung biopsies taken from UIP patients (n=4) and these are referred to as “fibrotic fibroblasts”. Fibroblasts were also isolated from lung tissue taken during lung tumor resection (n=5) and these samples were confirmed to be non-fibrotic by histological analysis. These non-fibrotic tissue derived fibroblasts are referred to as “non-fibrotic fibroblasts”.
(§2) Human lung fibroblasts were plated into 24 well plates (Costar, Corning, N.Y.) at 100,000 cells/well and allowed to adhere for 8 hours. The cells were then washed with PBS and cultured overnight in serum free media (DMEM with 1-Glutamine, Pen/Strep). Cells were then stimulated for 24 hrs in the presence or absence of TGFb-1 (1 or 10 ng/mL), PDGF-AB (20 or 200 ng/mL) or CCL2 (1 or 10 ng/mL). TGFb1, PDGF-AB and CCL2 were purchased from R&D Systems. Supernatants were removed and RNA was subsequently isolated using RNeasy Plus Mini-Kits (QIAGEN, Valencia, Calif.) as per manufacturer's instructions and RNA was reverse transcribed into cDNA using TaqManâ Reverse Transcription Reagents (Applied Biosystems, Foster City, Calif.). Profibrotic gene expression was determined by real time PCR using the Taqmanâ Universal PCR Master Mix (Applied Biosystems) and pre-developed Taqmanâ Gene Expression Assays (Applied Biosystems) as per manufacture's instructions.
(§3) Quantitative gene expression was calculated using the comparative CT method, where CT values are determined as the threshold cycle number for which gene expression is first detected. Fold changes in gene expression for the genes of interest were first normalized to the housekeeping gene 18S, giving ACT values. Fold changes in expression between fibrotic and non-fibrotic fibroblasts were calculated as: ΔCT(non-fibrotic)−ΔCT(fibrotic)=ΔΔCT, where the non-fibrotic gene expression served as the calibrator. Fold changes in gene expression due to in vitro stimulation were calculated by ΔΔCT=ΔCT(unstimulated)−ΔCT(stimulated), where the unstimulated sample served as calibrator. The calculation 2-ΔΔCT then gives a relative value for final fold change when compared to calibrator.

[2] = tested on: non-fibrotic fibroblasts; assay: Profibrotic gene expression (real time PCR) after 24 hrs stimulation of non-fibrotic fibroblasts; format: cell-based, human
From the text: as §1, §2, §3

| Substance | IL13Ra1 gene expression (FIG. 7A) ([1]; UIP fibroblasts) | TGFbRII gene expression (FIG. 6B) ([1]; UIP fibroblasts) | procollagen I gene expression (FIG. 3A) ([1]; UIP fibroblasts) | procollagen III gene expression (FIG. 3B) ([1]; UIP fibroblasts) | IL13Ra2 gene expression (FIG. 7B) [1] | CTGF gene expression (FIG. 5) [1] | TGFb1 gene expression (FIG. 4) [1] | aSMA expression (FIG. 2) [1] | increase in aSMA expression [1] | aSMA expression (FIG. 2) [2] | TGFbRI gene expression (FIG. 6A) ([1]; UIP fibroblasts) | CTGF gene expression (FIG. 5) [2] | TGFb1 gene expression (FIG. 4) [2] |
| --- | --- | --- | --- | --- | --- | --- | --- | --- | --- | --- | --- | --- | --- |
| CCL2: CC-chemokine ligand 2, Monocyte Chemoattractant Protein 1; purchased from R&D Systems, used as fibroblast stimulus | upregulated | somewhat greater increase in TGFbRII | induces | induces | upregulated | induced an increase | enhances TGFb1 gene expression | induced an increase | more than 10 fold | only induced an increase in aSMA expression in fibrotic fibroblasts |  |  |  |
| PDGF: platelet-derived growth factor alpha/beta; purchased from R&D Systems, used as fibroblast stimulus | upregulated |  |  |  | upregulated | induced an increase |  | modest increase | less than 10 fold | only in the fibrotic fibroblasts |  |  |  |
| TGFb1: transforming growth factor beta-1; purchased from R&D Systems, used as fibroblast stimulus | upregulated |  |  |  | upregulated | induced an increase | increased TGFβ1 | induced aSMA |  | induced aSMA | greater effect on TGFbRI | induced an increase | increased TGFβ1 |
